Consider 7 compounds from patent publication US12486290B2, “Isoindolinone and indazole compounds for the degradation of EGFR” (C4 THERAPEUTICS, INC., priority 2019, dated 2025).

For the test, the target named is T1, EGFR T790M/L858R (NCI-H1975 cells) (Homo sapiens, UniProt P00533, L858R/T790M).
T1 construct: NCI-H1975 (harboring EGFR heterozygous T790M/L858R mutations); host or cells: NCI-H1975
Description: EGFR (L858R) degradation analysis, Total EGFR (L858R) HTRF, NCI-H1975 cells. The class given is cell-based. The settings on record: 6 hours. The text has this: NCI-H1975 (harboring EGFR heterozygous T790M/L858R mutations) and NCI-H3255 (harboring EGFR heterozygous L858R mutation) were purchased from ATCC and NCI, respectively. NCI-H1975+CS (harboring EGFR heterozygous T/790M/L858R/C797S mutations) was generated using CRISPR technology to introduce the additional C797S mutation by Horizon Discovery. RPMI 1640 no-phenol red medium and fetal bovine serum (FBS) were purchased from Gibco (Grand Island, NY, USA). Cell culture flasks and 384-well microplates were acquired from VWR (Radnor, PA, USA). Total EGFR (L858R) HTRF assay kits were purchased from Cisbio (Bedford, MA, USA).
Degradation of EGFR protein containing L858R mutation was determined based on quantification of FRET signal using Total EGFR (L858R) HTRF assay kit. Test compounds were added to the 384-well plate from a top concentration of 10 μM with 11 points, half log titration in duplicates. NCI-H1975, NCI-H1975+CS or NCI-H3255 cells were added into 384-well plates at a cell density of 10000, 10000 or 1000 cells per well, respectively. The plates were kept at 37° C. with 5% CO2 for 6 hours. Cells treated in the absence of the test compound were the negative control. Positive control was set by wells containing all reagents but no cells. FRET signal was acquired on EnVision™ Multilabel Reader (PerkinElmer, Santa Clara, CA, USA).
Background: TR-FRET usually uses a lanthanide donor and a delayed reading to cut background.

Usually DC50 stands for the concentration giving 50% degradation. Read a high DC50 as degradation only at high concentration.

T1 sequence (P00533 25-1210 T790M/L858R): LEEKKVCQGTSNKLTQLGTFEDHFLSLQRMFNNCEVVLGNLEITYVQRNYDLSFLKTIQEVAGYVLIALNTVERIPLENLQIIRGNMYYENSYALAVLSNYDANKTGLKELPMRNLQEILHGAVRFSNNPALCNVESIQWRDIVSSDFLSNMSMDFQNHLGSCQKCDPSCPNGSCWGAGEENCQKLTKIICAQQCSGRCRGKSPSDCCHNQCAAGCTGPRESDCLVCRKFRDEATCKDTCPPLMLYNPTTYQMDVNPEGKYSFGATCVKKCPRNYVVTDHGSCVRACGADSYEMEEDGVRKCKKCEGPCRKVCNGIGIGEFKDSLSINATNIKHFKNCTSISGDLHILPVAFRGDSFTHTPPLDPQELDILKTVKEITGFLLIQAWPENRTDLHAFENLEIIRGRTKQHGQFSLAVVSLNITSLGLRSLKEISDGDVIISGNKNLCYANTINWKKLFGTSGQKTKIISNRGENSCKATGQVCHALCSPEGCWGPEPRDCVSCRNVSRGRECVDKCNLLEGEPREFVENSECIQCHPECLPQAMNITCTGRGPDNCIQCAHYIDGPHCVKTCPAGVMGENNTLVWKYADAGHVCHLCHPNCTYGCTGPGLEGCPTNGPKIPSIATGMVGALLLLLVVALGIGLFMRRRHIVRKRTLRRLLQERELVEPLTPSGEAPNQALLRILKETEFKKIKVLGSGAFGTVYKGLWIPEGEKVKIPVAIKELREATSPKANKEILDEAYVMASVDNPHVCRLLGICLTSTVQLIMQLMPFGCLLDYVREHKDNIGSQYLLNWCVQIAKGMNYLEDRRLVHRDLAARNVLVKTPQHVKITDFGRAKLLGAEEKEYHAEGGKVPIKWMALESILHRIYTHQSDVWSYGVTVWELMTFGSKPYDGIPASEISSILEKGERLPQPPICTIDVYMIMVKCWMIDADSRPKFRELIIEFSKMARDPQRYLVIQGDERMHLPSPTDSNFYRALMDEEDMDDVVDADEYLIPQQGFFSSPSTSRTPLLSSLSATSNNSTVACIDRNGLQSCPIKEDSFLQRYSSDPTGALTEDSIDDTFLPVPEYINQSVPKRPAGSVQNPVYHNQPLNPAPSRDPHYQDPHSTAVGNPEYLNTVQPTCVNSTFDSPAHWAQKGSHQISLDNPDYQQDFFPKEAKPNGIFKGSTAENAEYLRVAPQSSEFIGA

`O=C1CCC(Nc2ccc(C3CCN(CC(=O)N4CCC(Oc5ccc(-c6cc(F)c7c(c6)C(=O)N(C(C(=O)Nc6nccs6)c6ncn8c6CCC8)C7)cc5)CC4)CC3)cc2)C(=O)N1` (stereo not shown) [Compound 31, 2-(6,7-dihydro-5H-pyrrolo[1,2-c]imidazol-1-yl)-2-[6-[4-[[1-[2-[4-[4-[(2,6-dioxo-3-piperidyl)amino]phenyl]-1-piperidyl]acetyl]-4-piperidyl]oxy]phenyl]-4-fluoro-1-oxo-isoindolin-2-yl]-N-thiazol-2-yl-acetamide] returned a DC50 of 32 nM.

The compound `O=C1CCC(Nc2ccc(C3CCN(CC(=O)N4CCC(Oc5ccc(-c6cc(F)c7c(c6)C(=O)N(C(C(=O)Nc6nccs6)c6ncn8c6CCC8)C7)cc5)CC4)CC3)nc2)C(=O)N1` (stereo not shown) [Compound 36, 2-(6,7-dihydro-5H-pyrrolo[1,2-c]imidazol-1-yl)-2-(6-(4-((1-(2-(4-(5-((2,6-dioxopiperidin-3-yl)amino)pyridin-2-yl)piperidin-1-yl)acetyl)piperidin-4-yl)oxy)phenyl)-4-fluoro-1-oxoisoindolin-2-yl)-N-(thiazol-2-yl)acetamide] came in with a DC50 of 31 nM.

In turn, `O=C1CC[C@@H](Nc2ccc(C3CCN(CC(=O)N4CCC(c5ccc(-c6cc(F)c7c(c6)C(=O)N(C(C(=O)Nc6nccs6)c6ncn8c6CCC8)C7)cc5)CC4)CC3)cc2)C(=O)N1` (stereo partly drawn) [Compound 23, 2-(6,7-dihydro-5H-pyrrolo[1,2-c]imidazol-1-yl)-2-(6-(4-(1-(2-(4-(4-(((R)-2,6-dioxopiperidin-3-yl)amino)phenyl)piperidin-1-yl)acetyl)piperidin-4-yl)phenyl)-4-fluoro-1-oxoisoindolin-2-yl)-N-(thiazol-2-yl)acetamide] had a half-maximal degradation concentration (DC50) of 33 nM. The DC50 values of the last two compounds are within 1.5-fold of each other.

For the compound `O=C1CCC(c2ccc(N3CCC(O)(CC(=O)N4CC5(CCN(c6ccc(-c7cc(F)c8c(c7)C(=O)N(C(C(=O)Nc7nccs7)c7ncn9c7CCC9)C8)cc6)CC5)C4)CC3)c(F)c2)C(=O)N1` (stereo not shown) [Compound 159, 2-(6,7-dihydro-5H-pyrrolo[1,2-c]imidazol-1-yl)-2-[6-[4-[2-[2-[1-[4-(2,6-dioxo-3-piperidyl)-2-fluoro-phenyl]-4-hydroxy-4-piperidyl]acetyl]-2,7-diazaspiro[3.5]nonan-7-yl]phenyl]-4-fluoro-1-oxo-isoindolin-2-yl]-N-thiazol-2-yl-acetamide], the DC50 (class symbols) is 50 to 150 nM.

The compound `O=C1CCC(Nc2ccc(C3CCN(C(=O)CN4CCC(c5ccc(-c6cc(F)c7c(c6)C(=O)N(C(C(=O)Nc6nccs6)c6ncn8c6CCC8)C7)cc5)CC4)CC3)cc2)C(=O)N1` (stereo not shown) [Compound 26, 2-(6,7-dihydro-5H-pyrrolo[1,2-c]imidazol-1-yl)-2-[6-[4-[1-[2-[4-[4-[(2,6-dioxo-3-piperidyl)amino]phenyl]-1-piperidyl]-2-oxo-ethyl]-4-piperidyl]phenyl]-4-fluoro-1-oxo-isoindolin-2-yl]-N-thiazol-2-yl-acetamide] had a DC50 of 26 nM.

`O=C1CCC(Nc2ccc(C3CCC(CC(=O)N4CCN(c5ccc(-c6cc(F)c7c(c6)C(=O)N(C(C(=O)Nc6nccs6)c6ncn8c6CCC8)C7)cc5)CC4)CC3)cc2)C(=O)N1` (racemic) [Compound 9, (2RS)-2-(6,7-Dihydro-5H-pyrrolo[1,2-c]imidazol-1-yl)-2-[4-fluoro-1-oxo-6-[4-[4-[2-[4-[4-[[(3RS)-2,6-dioxo-3-piperidyl]amino]phenyl]cyclohexyl]acetyl]piperazin-1-yl]phenyl]isoindolin-2-yl]-N-thiazol-2-yl-acetamide] showed a DC50 of 30 nM.

In the case of `O=C1CCC(Nc2cc(F)c(N3CCC(O)(CC(=O)N4CC5(C4)CN(c4ccc(-c6cc(F)c7c(c6)C(=O)N(C(C(=O)Nc6nccs6)c6ncn8c6CCC8)C7)cc4)C5)CC3)c(Cl)c2)C(=O)N1` (stereo not shown) [Compound 145, 2-[6-[4-[2-[2-[1-[2-chloro-4-[[2,6-dioxo-3-piperidyl]amino]-6-fluoro-phenyl]-4-hydroxy-4-piperidyl]acetyl]-2,6-diazaspiro[3.3]heptan-6-yl]phenyl]-4-fluoro-1-oxo-isoindolin-2-yl]-2-(6,7-dihydro-5H-pyrrolo[1,2-c]imidazol-1-yl)-N-thiazol-2-yl-acetamide], the half-maximal degradation concentration (DC50) (class symbols) is 50 to 150 nM.
